# System: not given
# Assay: not given
# Settings: phase II trial; altered behavior, delusion, hallucinations, extreme emotions, excited motor activity, incoherent speech; cited from earlier work
row,Structure (SMILES),activity on positive symptoms of schizophrenia
1,"CC(=O)N(C)C1(c2ccccc2)CCN(CCC[C@]2(c3ccc(Cl)c(Cl)c3)CCCN(C(=O)c3ccccc3)C2)CC1 [SR 142,801, Osanetant]",active

# Same assay, conditions: phase II trial; depression, anhedonia, social isolation, memory and attention deficits; cited from earlier work
row,Structure (SMILES),activity in the treatment of negative symptoms of schizophrenia
1,"CC(=O)N(C)C1(c2ccccc2)CCN(CCC[C@]2(c3ccc(Cl)c(Cl)c3)CCCN(C(=O)c3ccccc3)C2)CC1 [SR 142,801, Osanetant]",inactive

# Biological target: T1, human NK3 receptor (Homo sapiens, UniProt P29371)
# T1 construct: expressed in transfected cells; host or cells: HEK293 cells (transient expression), membranes
# T1 sequence (P29371 1-465): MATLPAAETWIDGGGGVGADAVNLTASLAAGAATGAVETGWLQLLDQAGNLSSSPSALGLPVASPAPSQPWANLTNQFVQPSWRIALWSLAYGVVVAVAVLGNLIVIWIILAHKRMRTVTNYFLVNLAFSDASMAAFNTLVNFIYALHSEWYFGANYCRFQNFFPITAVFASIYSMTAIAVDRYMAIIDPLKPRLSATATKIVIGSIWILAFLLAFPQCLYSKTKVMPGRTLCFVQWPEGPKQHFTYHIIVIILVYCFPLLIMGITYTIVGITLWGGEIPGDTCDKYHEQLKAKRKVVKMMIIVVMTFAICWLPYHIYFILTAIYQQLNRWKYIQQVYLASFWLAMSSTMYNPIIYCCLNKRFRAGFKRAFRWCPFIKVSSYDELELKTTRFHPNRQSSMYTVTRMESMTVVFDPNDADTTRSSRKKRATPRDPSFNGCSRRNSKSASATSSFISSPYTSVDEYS
# Assay: [3H]SR142801 competition binding assay
# Settings: membrane from HEK293 cells transiently expressing recombinant human NK3 receptor; radioligand [3H]SR142801; Ki from IC50 by Cheng-Prussoff equation
# Experimental: [^3H]SR142801 Competition Binding Assay
# hNK3 receptor binding experiment were performed using [^3H]SR142801 (Catalog No. TRK1035, specific activity: 74.0 Ci/mmol, Amersham, GE Healthcare UK limited, Buckinghamshire, UK) and membrane isolated from HEK293 cells transiently expressing recombinant human NK3 receptor. After thawing, the membrane homogenates were centrifuged at 48,000×g for 10 min at 4° C., the pellets were resuspended in the 50 mM Tris-HCl, 4 mM MnCl2, 1 μM phosphoramidon, 0.1% BSA binding buffer at pH 7.4 to a final assay concentration of 5 μg protein/well. […] At the end of the incubation, membranes were filtered onto unitfilter (96-well white microplate with bonded GF/C filter preincubated 1 h in 0.3% PEI+0.3% BSA, Packard BioScience, Meriden, Conn.) with a Filtermate 196 harvester (Packard BioScience) and washed 4 times with ice-cold 50 mM Tris-HCl, pH 7.4 buffer. Nonspecific binding was measured in the presence of 10 μM SB222200 for both radioligands. The radioactivity on the filter was counted (5 min) on a Packard Top-count microplate scintillation counter with quenching correction after addition of 45 μl of microscint 40 (Canberra Packard S. A., Zürich, Switzerland) and shaking for 1 h. Inhibition curves were fitted according to the Hill equation: y=100/(1+(x/IC50)^nH), where nH=slope factor using Excel-fit 4 software (Microsoft). IC50 values were derived from the inhibition curve and the affinity constant (Ki) values were calculated using the Cheng-Prussoff equation Ki=IC50/(1+[L]/KD) where [L] is the concentration of radioligand and KD is its dissociation constant at the receptor, derived from the saturation isotherm. All experiments were performed in duplicate and the mean±standard error (SEM) of the individual Ki values was calculated.
row,Structure (SMILES),Ki
1,"CC1(C(=O)N2CCC(C(=O)N3C[C@H](CNc4ncc(C(F)(F)F)cn4)[C@@H](c4ccc(Cl)c(Cl)c4)C3)CC2)CC1 [Example 57, {(3S,4S)-3-(3,4-Dichloro-phenyl)-4-[(5-trifluoromethyl-pyrimidin-2-ylamino)-methyl]-pyrrolidin-1-yl}-[1-(1-methyl-cyclopropanecarbonyl)-piperidin-4-yl]-methanone]",1.8 nM
2,Cc1cc(C(=O)N2C[C@H](CNc3ncc(C(F)(F)F)cn3)[C@@H](c3ccc(Cl)c(Cl)c3)C2)cnn1 (racemic) [Example 35],9 nM
3,Cc1cc(C(=O)N2C[C@H](CNc3ccc(C(F)(F)F)cn3)[C@@H](c3ccc(Cl)c(Cl)c3)C2)cnn1 (racemic) [Example 20],11 nM
4,"N#Cc1ccc(C(=O)N2CC(CNc3ccc(C(F)(F)F)cn3)C(c3ccc(Cl)c(Cl)c3)C2)cn1 (racemic) [Example 17, (3SR,4RS)-5-{3-(3,4-Dichloro-phenyl)-4-[(5-trifluoromethyl-pyridin-2-ylamino)-methyl]-pyrrolidine-1-carbonyl}-pyridine-2-carbonitrile]",9.6 nM
5,"CC(Nc1ccc(C(F)(F)F)cn1)[C@H]1CN(C(=O)N2CCN(S(C)(=O)=O)CC2)C[C@@H]1c1ccc(Cl)c(Cl)c1 (mixture of isomers) [Example 37, (3SR,4RS) {3-(3,4-Dichloro-phenyl)-4-[1-(RS)-(5-trifluoromethyl-pyridin-2-ylamino)-ethyl]-pyrrolidin-1-yl}-(4-methanesulfonyl-piperazin-1-yl)-methanone and (3SR,4RS) {3-(3,4-Dichloro-phenyl)-4-[1-(SR)-(5-trifluoromethyl-pyridin-2-ylamino)-ethyl]-pyrrolidin-1-yl}-(4-methanesulfonyl-piperazin-1-yl)-methanone]",54.9 nM
6,"CN(C[C@H]1CN(C(=O)C2CCN(C(=O)C3(C)CC3)CC2)C[C@@H]1c1ccc(Cl)c(Cl)c1)c1ncc(C(F)(F)F)cn1 [Example 59, ((3S,4S)-3-(3,4-Dichloro-phenyl)-4-{[methyl-(5-trifluoromethyl-pyrimidin-2-yl)-amino]-methyl}-pyrrolidin-1-yl)-[1-(1-methyl-cyclopropanecarbonyl)-piperidin-4-yl]-methanone]",2.3 nM
7,"CS(=O)(=O)N1CCN(C(=O)N2CC(CNc3ccc(C(F)(F)F)cn3)C(c3ccc(Cl)c(Cl)c3)C2)CC1 (racemic) [Example 12, (3SR,4RS)-{3-(3,4-Dichloro-phenyl)-4-[(5-trifluoromethyl-pyridin-2-ylamino)-methyl]-pyrrolidin-1-yl}-(4-methanesulfonyl-piperazin-1-yl)-methanone]",20 nM
8,"CN(C[C@H]1CN(C(=O)C2CCN(C(=O)C3(C)CC3)CC2)C[C@@H]1c1ccc(Cl)cc1)c1ccc(C(F)(F)F)cn1 [Example 53, [4-((3S,4S)-3-(4-Chloro-phenyl)-4-{[methyl-(5-trifluoromethyl-pyridin-2-yl)-amino]-methyl}-pyrrolidine-1-carbonyl)-piperidin-1-yl]-(1-methyl-cyclopropyl)-methanone]",85.6 nM

# Continued, values first:
row,Ki,Structure (SMILES)
1,47 nM,"CN(C[C@H]1CN(C(=O)C2CCN(C(=O)C3(C)CC3)CC2)C[C@@H]1c1ccc(Cl)c(Cl)c1)c1ccc(Cl)cn1 [Example 66, {4-[(3S,4S)-3-{[(5-Chloro-pyridin-2-yl)-methyl-amino]-methyl}-4-(3,4-dichloro-phenyl)-pyrrolidine-1-carbonyl]-piperidin-1-yl}-(1-methyl-cyclopropyl)-methanone]"
2,42.9 nM,"CN(C[C@H]1CN(C(=O)C2CCN(C(=O)C3(C)CC3)CC2)C[C@@H]1c1ccc(Cl)cc1)c1ncc(C(F)(F)F)cn1 [Example 55, ((3S,4S)-3-(4-Chloro-phenyl)-4-{[methyl-(5-trifluoromethyl-pyrimidin-2-yl)-amino]-methyl}-pyrrolidin-1-yl)-[1-(1-methyl-cyclopropanecarbonyl)-piperidin-4-yl]-methanone]"
3,15.8 nM,"Cc1cc(C(=O)N2C[C@H](CN(C)c3ncc(C(F)(F)F)cn3)[C@@H](c3ccc(Cl)c(Cl)c3)C2)cnn1 [Example 60, ((3S,4S)-3-(3,4-Dichloro-phenyl)-4-{[methyl-(5-trifluoromethyl-pyrimidin-2-yl)-amino]-methyl}-pyrrolidin-1-yl)-(6-methyl-pyridazin-4-yl)-methanone]"
4,6.6 nM,"CS(=O)(=O)N1CCN(C(=O)N2C[C@H](CNc3ccc(C(F)(F)F)cn3)[C@@H](c3ccc(Cl)c(Cl)c3)C2)CC1 [Example 13, (3S,4S)-{3-(3,4-Dichloro-phenyl)-4-[(5-trifluoromethyl-pyridin-2-ylamino)-methyl]-pyrrolidin-1-yl}-(4-methanesulfonyl-piperazin-1-yl)-methanone]"

# — patent publication US8318759B2, “Pyrrolidine derivatives as NK3 receptor antagonists” (Hoffmann-La Roche Inc., priority 2009, dated 2012)
